{"source": "patent US20170106017A1", "about": "(priority 2014, published 2017)", "key": {"IL-18 [1]": {"system": "IL-18", "experimental": "A randomized, double-blind, placebo-controlled study was administered over six cycles. Patients were treated with chlorite 2 mg/kg/infusion, or placebo. Patients were scheduled to receive a total of 20 infusions over 6 cycles during a 25-week (or 6-month) treatment period. […] Levels of biomarkers can be measured with techniques known in the art, e.g., ELISA or flow cytometry."}, "IL-18 [2]": {"system": "IL-18", "settings": "1-2 mg/kg/infusion, 6 months; for plasma level of IL-18 after treatment: responders", "experimental": "Thirty two patients diagnosed with ALS were treated with chlorite over the course of 6 months. The initial plasma concentration of IL-18 in each patient was recorded and set as the baseline level. Patients were treated with 1-2 mg/kg/infusion chlorite over the course of 6 months. ALSFRS-R scores and IL-18 levels were recorded at different time points during the treatment and compared with the initial concentration."}, "ALS patients [3]": {"system": "ALS patients", "settings": "for ALSFRS-R level over the course of treatment: 1-2 mg/kg/infusion, 6 months", "experimental": "Patients diagnosed with ALS are treated with chlorite over the course of 6 months. Based upon the initial concentration of IL-18 at the baseline or its baseline level, patients are sorted into two groups. Patients with baseline level of IL-18 higher than 60 pg/mL are assigned in IL-18-high group and patients with baseline level of IL-18 lower than 60 pg/mL are assigned in IL-18-low group. Both groups are treated with 1-2 mg/kg/infusion chlorite over the course of 6 months. ALSFRS-R scores and IL-18 levels are recorded at different time points during the treatment and compared between IL-18-high and IL-18-low groups."}, "ALS patients [4]": {"system": "ALS patients", "settings": "for mean decrease in ALSFRS-R score: 3-month off-drug follow-up; for estimated ALSFRS-R slope: patients less than the baseline median wr-CRP; for estimated ALSFRS-R slope decline: patients with baseline wrCRP at or above the median"}, "ALS patients [5]": {"system": "ALS patients", "settings": "for decline in vital capacity: at least 6 months of treatment", "protocol": "(§1) A randomized, double-blind, placebo-controlled study was administered over six cycles. Patients were treated with chlorite 2 mg/kg/infusion, or placebo. […] Samples from both responders and non-responders were collected and tested at different time points, e.g., at baseline (pre-dose Cycle 1, Week 1), 1-month, 2-month, 3-month, 4-month, 5-month and 6-month. ALSFRS-R scores and biomarkers levels were measured in responders and non-responders at selected time points and compared to the placebo group."}, "LPS": {"system": "LPS", "settings": "for responders with decreased LPS: at least 6 months of treatment", "protocol": "as §1"}, "[6]": {"system": "CD16 expression on CD16 bright monocytes", "settings": "0.2-3.2 mg/kg single dose, 24 hours after dosing"}, "ALS patients [7]": {"system": "ALS patients", "settings": "1-2 mg/kg/infusion, at least 6 months"}, "AD patients": {"system": "AD patients", "settings": "1-2 mg/kg/infusion, 6 months"}, "PD patients": {"system": "PD patients", "settings": "1-2 mg/kg/infusion, 6 months"}, "[8]": {"system": "G93A SOD1 congenic strain of mice", "settings": "preliminary studies (McGrath et al., 2010); cited from earlier work"}}, "note": "Like-named read-outs stand apart in the source and are kept apart here.", "data": [{"substance": "sodium chlorite [NP001]", "values": [{"measurement": "responders with decreased IL-18", "setting": "IL-18 [1]; high dose responders, at least 6 months of treatment", "value": 80, "unit": "%"}, {"measurement": "responders with decrease in IL-18", "setting": "IL-18 [1]; low dose group responders (8), at least 6 months of treatment", "value": 1, "unit": "patient"}, {"measurement": "change of plasma IL-18 level from baseline", "setting": "IL-18 [1]; non-responders, after 25 weeks", "value": "increase"}, {"measurement": "change of plasma IL-18 level from baseline", "setting": "IL-18 [1]; responders, after 25 weeks of treatment", "value": "decrease"}, {"measurement": "number of non-responders", "setting": "IL-18 [2]; 32 ALS patients", "value": 22}, {"measurement": "number of responders", "setting": "IL-18 [2]; 32 ALS patients", "value": 10}, {"measurement": "plasma level of IL-18 after treatment", "setting": "IL-18 [2]", "value": "decreased"}, {"measurement": "plasma level of IL-18 after treatment", "setting": "IL-18 [2]; listed as chlorite/NP001", "value": "capable of lowering IL-18 plasma level"}, {"measurement": "ALSFRS-R level over the course of treatment", "setting": "ALS patients [3]; IL-18-high group (baseline IL-18 higher than 60 pg/mL)", "value": "stabilizes"}, {"measurement": "decrease in IL-18 baseline level", "setting": "ALS patients [3]; IL-18-high vs IL-18-low group", "value": "can only be observed in IL-18-high group"}, {"measurement": "ALSFRS-R level over the course of treatment", "setting": "ALS patients [3]; IL-18-low group (baseline IL-18 lower than 60 pg/mL)", "value": "no stabilization"}, {"measurement": "effect on ALSFRS-R slope and change from baseline compared to placebo", "setting": "ALS patients [4]; 1 mg/kg", "value": "minimal or no effect dose"}, {"measurement": "mean decrease in ALSFRS-R score", "setting": "ALS patients [4]; 1 mg/kg", "value": "−3.7"}, {"measurement": "estimated ALSFRS-R slope", "setting": "ALS patients [4]; 1 mg/kg", "value": "−1.38"}, {"measurement": "estimated ALSFRS-R slope decline", "setting": "ALS patients [4]; 1 mg/kg", "value": "−0.73", "unit": "points per month"}, {"measurement": "mean decrease in ALSFRS-R score", "setting": "ALS patients [4]; 2 mg/kg", "value": "−3.3"}, {"measurement": "ALSFRS-R mean slope", "setting": "ALS patients [4]; 2 mg/kg, 6 months of treatment (Weeks 1 through 25)", "value": "−0.77", "unit": "points per month"}, {"measurement": "percent change in ALSFRS-R mean slope compared to placebo", "setting": "ALS patients [4]; 2 mg/kg, 6 months, concurrent placebo", "value": 13, "unit": "%"}, {"measurement": "improvement in rate of progression compared to placebo", "setting": "ALS patients [4]; 2 mg/kg, baseline wrCRP at or above the median, p=0.2", "value": 41, "unit": "%"}, {"measurement": "estimated ALSFRS-R slope", "setting": "ALS patients [4]; 2 mg/kg", "value": "−0.87"}, {"measurement": "estimated ALSFRS-R slope decline", "setting": "ALS patients [4]; 2 mg/kg", "value": "−0.55", "unit": "points per month"}, {"measurement": "slowing of change in ALSFRS-R from baseline", "setting": "ALS patients [4]; 2 mg/kg, with addition of matched historical placebo control patients", "value": 21, "unit": "%"}, {"measurement": "improvement in the rate of progression compared to combined placebo controls", "setting": "ALS patients [4]; 2 mg/kg, with matched historical placebo controls, p=0.16", "value": 19, "unit": "%"}, {"measurement": "slowing of change in ALSFRS-R from baseline", "setting": "ALS patients [4]; 2 mg/kg, without addition of matched historical placebo control patients", "value": 17, "unit": "%"}, {"measurement": "slower functional decline (residual) in mean change in ALSFRS-R compared to placebo", "setting": "ALS patients [4]; high dose (2 mg/kg), off-drug follow-up", "value": 11, "unit": "%"}, {"measurement": "disease progression of ALS patients", "setting": "ALS patients [5]; 2 mg/kg, patients with high plasma level of IL-18, IL-6, INF-g, and CPR", "value": "capable of slowing the disease progression"}, {"measurement": "percentage of patients who did not progress (responders)", "setting": "ALS patients [5]; high dose group (2 mg/kg), 6-month treatment period", "value": 27, "unit": "%"}, {"measurement": "percentage of non-progressing patients relative to placebo group", "setting": "ALS patients [5]; high dose group vs placebo (11%)", "value": "approximately 2.5 times"}, {"measurement": "decline in vital capacity", "setting": "ALS patients [5]; non-responders, 1 mg", "value": "−17.7+/−17.9"}, {"measurement": "decline in vital capacity", "setting": "ALS patients [5]; non-responders, 2 mg", "value": "−14.5+/−13.2"}, {"measurement": "ALSFRS-R score over the 6-month treatment period", "setting": "ALS patients [5]; responders", "value": "remained stable"}, {"measurement": "decline in vital capacity", "setting": "ALS patients [5]; responders, 1 mg", "value": "−8.95+/−10.1"}, {"measurement": "decline in vital capacity", "setting": "ALS patients [5]; responders, 2 mg", "value": "−3.76+/−5.7"}, {"measurement": "responders with decreased LPS", "setting": "LPS; high dose responders", "value": 70, "unit": "%"}, {"measurement": "responders with decreased LPS", "setting": "LPS; low dose group responders (8)", "value": "half"}, {"measurement": "LPS level at week 24", "setting": "LPS; non-responders, baseline about 0.35", "value": "about 0.2"}, {"measurement": "decrease of LPS level from baseline", "setting": "LPS; non-responders, week 24", "value": "about 40%"}, {"measurement": "LPS level after treatment", "setting": "LPS; responders, week 24, baseline about 0.3", "value": "undetectable level"}, {"measurement": "decrease of LPS level from baseline", "setting": "LPS; responders, week 24, calculated with minimum detection level about 0.075", "value": "about 75%"}, {"measurement": "level of CD16 expression on the CD16 bright subset of monocytes vs placebo", "setting": "[6]", "value": "Dose-dependent changes"}, {"measurement": "relationship between mean ALSFRS-R levels and mean baseline levels of biomarkers", "setting": "ALS patients [7]", "value": "linear relationship with a positive slope"}, {"measurement": "treatment of AD patients", "setting": "AD patients", "value": "capable of treating AD patients"}, {"measurement": "treatment of Parkinson's patients", "setting": "PD patients", "value": "capable of treating Parkinson's patients"}, {"measurement": "survival, treated compared to control mice", "setting": "[8]", "value": "significant survival improvement"}]}]}
